Values belong to the compound of their own block, whether it stands above or below them.
How the values were obtained:
NTR1 [1] = target: T1, NTR1 (Homo sapiens, UniProt P30989); assay: Functional Ca2+ mobilisation assay (antagonist assay); type: cell-based; set-up: HA-tagged puromycin N-acetyltransferase-ubiquitin fusion (pExoIN2 system; HEK293 lines only) (N); host or cells: HT29 (endogenous receptor) or HEK293 stably transfected with NTR1; details: HT29 or NTR1-expressing HEK293 cells, EC80-concentration of agonist
T1 sequence (P30989 whole entry, the tested form may be a part): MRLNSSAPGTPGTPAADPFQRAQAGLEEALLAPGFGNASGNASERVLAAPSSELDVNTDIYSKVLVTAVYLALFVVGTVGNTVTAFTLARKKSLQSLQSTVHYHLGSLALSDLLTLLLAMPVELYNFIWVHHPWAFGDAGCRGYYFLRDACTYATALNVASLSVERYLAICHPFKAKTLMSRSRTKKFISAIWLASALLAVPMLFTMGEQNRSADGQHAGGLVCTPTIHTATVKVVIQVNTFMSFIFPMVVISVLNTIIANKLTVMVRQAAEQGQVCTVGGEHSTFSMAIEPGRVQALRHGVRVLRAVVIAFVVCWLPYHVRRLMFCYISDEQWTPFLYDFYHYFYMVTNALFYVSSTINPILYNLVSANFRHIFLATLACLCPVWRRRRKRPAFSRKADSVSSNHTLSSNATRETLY
Excerpt: Functional Ca^2+ Mobilisation Assay
Ca^2+ ions are usually kept at nanomolar levels in the cytosol of cells, and act in a number of signal transduction pathways as second messengers. […] Changes in calcium ion concentration in standard assay protocols can be readily detected with fluorescent dyes that emit light when changes in intracellular Ca^2+ ion concentration occur. Given the transient nature of these responses, they are often read with instrumentation that has ‘inject and read’ capability.
HT29 or NTR1-expressing HEK293 cells were trypsinized and seeded into black flat clear-bottom 96-well plates (Corning, Amsterdam, The Netherlands) at 6×10^5 cells per well. […] For agonist assays, serial dilutions of agonistic substances were added to the cells loaded with dye and the change of the fluorescent signal was recorded continually for approx. 90 s using a FlexStation II (Molecular Devices, Biberach, Germany). […] For antagonist assays, cells loaded with 100 μl of Ca5-dye were pre-incubated with serial dilutions of antagonistic substances for 30 min, before the EC80-concentration of agonist was added to the cells and the change of the fluorescent signal was recorded continually for approx. 90 s. […]

NTR1 [2] = target: T1, NTR1; assay: NTR1 radioligand binding assay (RLB, Cerep); set-up: host or cells: CHO cells (receptor preparation); details: CHO cells recombinantly expressing the human receptor; 0.05 nM 125I-(Tyr3-neurotensin); 60 min at 4° C.
Protocol: Radioligand Binding Assay
In order to determine the binding affinity of compounds comprising a radiolabel for NTR1, a radioligand binding assay was carried out. A radioligand is a radioactive biochemical substance that is used for diagnosis or for research-oriented study of cellular receptor systems of the body. In […] systems it is often used to quantify the binding of a test molecule to the binding site of radioligand. The higher the affinity of the molecule, the more radioligand is displaced from the binding site. The amount of bound radioligand can be measured by scintillation counting and thereby quantified. This assay is commonly used to calculate binding constants of molecules to receptors.
The NTR1 radioligand binding assay was performed by Cerep (Celle l'Evescault, France; Catalog reference 0109) according to Vita et al., FEBS Lett., 1993, 317, 139-142. NTR1 was prepared from CHO cells recombinantly expressing the human receptor and incubated with 0.05 nM ^125I-(Tyr^3-neurotensin) and serial dilutions of the test compounds. […] The result for each test compound is expressed as IC50 concentration and provides a measure for the affinity of the test compound for NTR1.

delta 2 (DOP) (h) = target: T2, delta 2 (DOP) (h) (Homo sapiens, UniProt P41143); assay: ExpresSProfile delta 2 (DOP) (h) agonist radioligand; type: binding; details: Reference Compound
T2 construct: Cerep (contract assay) P1
T2 sequence (P41143 whole entry): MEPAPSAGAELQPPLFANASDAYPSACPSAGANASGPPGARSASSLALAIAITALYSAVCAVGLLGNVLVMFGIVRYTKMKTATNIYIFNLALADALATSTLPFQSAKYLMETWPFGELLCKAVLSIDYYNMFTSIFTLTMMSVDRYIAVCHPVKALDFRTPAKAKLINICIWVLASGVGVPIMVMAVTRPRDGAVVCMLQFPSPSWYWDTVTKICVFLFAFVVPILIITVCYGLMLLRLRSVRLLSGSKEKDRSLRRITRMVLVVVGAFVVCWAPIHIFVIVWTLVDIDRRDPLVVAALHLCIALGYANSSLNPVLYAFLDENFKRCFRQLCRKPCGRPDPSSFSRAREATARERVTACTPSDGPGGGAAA

CCR1 (h) = target: T3, CCR1 (h) (Homo sapiens, UniProt P32246); assay: ExpresSProfile CCR1 (h) agonist radioligand; type: binding; details: Reference Compound; read-out: Ki Ref
T3 construct: Cerep P1
T3 sequence (P32246 1-355): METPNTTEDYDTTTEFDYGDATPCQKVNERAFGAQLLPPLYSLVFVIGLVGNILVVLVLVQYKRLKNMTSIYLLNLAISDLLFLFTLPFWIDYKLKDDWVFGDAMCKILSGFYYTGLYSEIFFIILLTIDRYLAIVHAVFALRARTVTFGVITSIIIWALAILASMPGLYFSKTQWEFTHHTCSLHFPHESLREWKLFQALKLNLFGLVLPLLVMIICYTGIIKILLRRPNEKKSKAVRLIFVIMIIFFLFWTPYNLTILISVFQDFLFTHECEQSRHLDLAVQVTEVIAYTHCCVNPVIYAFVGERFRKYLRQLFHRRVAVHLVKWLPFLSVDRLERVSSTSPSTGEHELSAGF

B2 (h) = target: T4, B2 (h) (Homo sapiens, UniProt P30411); assay: ExpresSProfile B2 (h) agonist radioligand; type: binding
T4 construct: Cerep P1
T4 sequence (P30411 1-391): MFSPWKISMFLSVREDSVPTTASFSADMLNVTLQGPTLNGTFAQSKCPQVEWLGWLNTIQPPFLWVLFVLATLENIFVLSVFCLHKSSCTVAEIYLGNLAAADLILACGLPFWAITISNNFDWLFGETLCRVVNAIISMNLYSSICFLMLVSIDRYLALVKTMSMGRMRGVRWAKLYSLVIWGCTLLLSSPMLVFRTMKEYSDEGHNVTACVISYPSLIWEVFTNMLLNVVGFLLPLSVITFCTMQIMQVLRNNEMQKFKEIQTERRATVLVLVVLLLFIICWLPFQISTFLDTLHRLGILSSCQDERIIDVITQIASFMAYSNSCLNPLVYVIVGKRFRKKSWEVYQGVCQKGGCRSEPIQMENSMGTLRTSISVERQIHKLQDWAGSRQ

CXCR2 (IL-8B) (h) = target: T5, CXCR2 (IL-8B) (h) (Homo sapiens, UniProt P25025); assay: ExpresSProfile CXCR2 (IL-8B) (h) agonist radioligand; type: binding; details: Reference Compound
T5 construct: Cerep P1
T5 sequence (P25025 1-360): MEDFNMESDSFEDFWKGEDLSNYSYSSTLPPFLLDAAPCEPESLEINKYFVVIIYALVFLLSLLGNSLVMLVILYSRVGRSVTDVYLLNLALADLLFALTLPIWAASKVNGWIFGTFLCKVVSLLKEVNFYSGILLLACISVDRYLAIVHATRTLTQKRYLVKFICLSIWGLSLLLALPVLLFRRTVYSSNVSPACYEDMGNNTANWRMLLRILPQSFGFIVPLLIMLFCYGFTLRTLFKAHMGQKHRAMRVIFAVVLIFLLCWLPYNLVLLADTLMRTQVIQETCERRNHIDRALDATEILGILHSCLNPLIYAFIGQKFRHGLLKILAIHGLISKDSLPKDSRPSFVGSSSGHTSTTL

CCK1 (CCKA) (h) = target: T6, CCK1 (CCKA) (h) (Homo sapiens, UniProt P32238); assay: ExpresSProfile CCK1 (CCKA) (h) agonist radioligand; type: binding; details: Reference Compound
T6 construct: Cerep P1
T6 sequence (P32238 1-428): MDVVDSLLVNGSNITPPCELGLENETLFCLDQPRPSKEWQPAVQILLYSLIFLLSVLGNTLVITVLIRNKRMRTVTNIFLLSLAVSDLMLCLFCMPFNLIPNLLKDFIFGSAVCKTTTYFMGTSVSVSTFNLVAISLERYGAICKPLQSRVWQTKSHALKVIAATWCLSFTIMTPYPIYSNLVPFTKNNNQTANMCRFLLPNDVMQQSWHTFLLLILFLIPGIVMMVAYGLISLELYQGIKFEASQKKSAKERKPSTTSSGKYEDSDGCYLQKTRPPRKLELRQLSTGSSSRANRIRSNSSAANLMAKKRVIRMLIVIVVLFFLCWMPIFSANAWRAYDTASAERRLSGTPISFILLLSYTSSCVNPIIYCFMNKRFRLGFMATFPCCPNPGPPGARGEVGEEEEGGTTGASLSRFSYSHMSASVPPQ

KV channel = assay: ExpresSProfile KV channel antagonist radioligand; type: binding; details: Reference Compound; read-out: Ki Ref

Compound: DPDPE
nH Ref (delta 2 (DOP) (h)): 0.9

Compound: NPC 567
nH Ref (B2 (h)): 0.9

Compound: IL-8: reference compound, CXCR2 (IL-8B) (h) assay
nH Ref (CXCR2 (IL-8B) (h)): 1.4
Ki (CXCR2 (IL-8B) (h); read-out: Ki Ref): 0.056 nM

Compound: CCK-8s
nH Ref (CCK1 (CCKA) (h)): 0.6

Compound: alpha-dendrotoxin
Ki (KV channel): 0.2 nM

Next, values leading:

IC50 [nM] Ca (NTR1 [1]): single digit nanomolar
IC50 [nM] RLB (NTR1 [2]): single digit nanomolar
Compound: COc1cccc(OC)c1-c1cc(C(=O)NC2(C(=O)O)C3CC4CC(C3)CC2C4)nn1-c1ccc(C(=O)N(CCCN)CCCN(C)C)cc1C(C)C (stereo not drawn) [(V), 2-{[1-{4-[(3-Amino-propyl)-(3-dimethylamino-propyl)-carbamoyl]-2-isopropyl-phenyl}-5-(2,6-dimethoxy-phenyl)-1H-pyrazole-3-carbonyl]-amino}-adamantane-2-carboxylic acid]

Ki (CCR1 (h)): 0.041 nM
Compound: MIP-1alpha: reference compound, CCR1 (h) assay

IC50 [nM] Ca (NTR1 [1]): single digit nanomolar
IC50 [nM] RLB (NTR1 [2]): single digit nanomolar
Compound: CNCCCN(C)CCCN(C)C(=O)c1ccc(-n2nc(C(=O)NC3(C(=O)O)C4CC5CC(C4)CC3C5)cc2-c2c(OC)cccc2OC)c(C(C)C)c1 (stereo not drawn) [(III), 2-({5-(2,6-Dimethoxy-phenyl)-1-[2-isopropyl-4-(methyl-{3-[methyl-(3-methylamino-propyl)-amino]-propyl}-carbamoyl)-phenyl]-1H-pyrazole-3-carbonyl}-amino)-adamantane-2-carboxylic acid]

IC50 (NTR1 [2]): 2 nM
Compound: COc1cccc(OC)c1-c1cc(C(=O)NC2(C(=O)O)C3CC4CC(C3)CC2C4)nn1-c1ccc(C(=O)N(C)CCCN(C)CCCN(C)C(=O)c2ccc(F)cc2)cc1C(C)C (stereo not drawn) [(IIIg), 2-{[5-(2,6-Dimethoxy-phenyl)-1-(4-{[3-({3-[(4-fluoro-benzoyl)-methyl-amino]-propyl}-methyl-amino)-propyl]-methyl-carbamoyl}-2-isopropyl-phenyl)-1H-pyrazole-3-carbonyl]-amino}-adamantane-2-carboxylic acid]
